# From PubChem BioAssay (NCI)
#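 Assay format: 96-well plates, 48-hour exposure. GI50 marks 50% less growth. Definition used: TGI = concentration required for complete inhibition of growth.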
# Assays:
# Assay in all cases: NCI-60 cell line screen, 48 h
# SF-539 CNS = tested on: SF-539 CNS
# UACC-62 melanoma = tested on: UACC-62 melanoma
# EKVX NSCLC = tested on: EKVX NSCLC
# TK-10 renal = tested on: TK-10 renal
# HCT-116 colon = tested on: HCT-116 colon
# MDA-MB-435 = tested on: MDA-MB-435
# SF-295 CNS = tested on: SF-295 CNS
# OVCAR-5 ovarian = tested on: OVCAR-5 ovarian
# ACHN renal = tested on: ACHN renal
# SNB-75 CNS = tested on: SNB-75 CNS
# OVCAR-4 ovarian = tested on: OVCAR-4 ovarian
# OVCAR-3 ovarian = tested on: OVCAR-3 ovarian
# LOX IMVI melanoma = tested on: LOX IMVI melanoma
# T-47D breast = tested on: T-47D breast
# SN12C renal = tested on: SN12C renal
# NCI-H460 lung = tested on: NCI-H460 lung
# CAKI-1 renal = tested on: CAKI-1 renal
# NCI-H226 lung = tested on: NCI-H226 lung
# A549 NSCLC = tested on: A549 NSCLC
# KM12 colon = tested on: KM12 colon
# NCI-H522 lung = tested on: NCI-H522 lung
# NCI-H23 lung = tested on: NCI-H23 lung
# HCT-15 colon = tested on: HCT-15 colon
# M14 melanoma = tested on: M14 melanoma
# RXF 393 renal = tested on: RXF 393 renal
# 786-0 renal = tested on: 786-0 renal
# IGROV1 ovarian = tested on: IGROV1 ovarian
# SK-OV-3 ovarian = tested on: SK-OV-3 ovarian
# HT29 colon = tested on: HT29 colon
# HOP-62 NSCLC = tested on: HOP-62 NSCLC
# MDA-MB-231 breast = tested on: MDA-MB-231 breast
# SR leukemia = tested on: SR leukemia
# UACC-257 melanoma = tested on: UACC-257 melanoma
# SW-620 colon = tested on: SW-620 colon
# CCRF-CEM leukemia = tested on: CCRF-CEM leukemia
# OVCAR-8 ovarian = tested on: OVCAR-8 ovarian
# HL-60(TB) leukemia = tested on: HL-60(TB) leukemia
# SF-268 CNS = tested on: SF-268 CNS
# MCF7 breast = tested on: MCF7 breast
# HOP-92 NSCLC = tested on: HOP-92 NSCLC
# UO-31 renal = tested on: UO-31 renal
# SK-MEL-28 melanoma = tested on: SK-MEL-28 melanoma
# K-562 leukemia = tested on: K-562 leukemia
# COLO 205 colon = tested on: COLO 205 colon
# NCI/ADR-RES ovarian = tested on: NCI/ADR-RES ovarian
# SK-MEL-2 melanoma = tested on: SK-MEL-2 melanoma
# HCC-2998 colon = tested on: HCC-2998 colon
# SK-MEL-5 melanoma = tested on: SK-MEL-5 melanoma
# SNB-19 CNS = tested on: SNB-19 CNS
# PC-3 prostate = tested on: PC-3 prostate
# MOLT-4 leukemia = tested on: MOLT-4 leukemia
# RPMI-8226 leukemia = tested on: RPMI-8226 leukemia
# U251 CNS = tested on: U251 CNS
# MALME-3M melanoma = tested on: MALME-3M melanoma
# HS 578T breast = tested on: HS 578T breast
# DU-145 prostate = tested on: DU-145 prostate
# BT-549 breast = tested on: BT-549 breast
smiles,measurement,setting,value
Cc1ccccc1Nc1nc2ccccc2nc1NS(=O)(=O)c1ccccc1,TGI,SF-539 CNS,> 100 µM
same,TGI,UACC-62 melanoma,> 100 µM
same,TGI,EKVX NSCLC,> 100 µM
same,TGI,TK-10 renal,> 100 µM
same,TGI,HCT-116 colon,> 100 µM
same,TGI,MDA-MB-435,> 100 µM
same,TGI,SF-295 CNS,> 100 µM
same,TGI,OVCAR-5 ovarian,> 100 µM
same,TGI,ACHN renal,> 100 µM
same,TGI,SNB-75 CNS,> 100 µM
same,TGI,OVCAR-4 ovarian,> 100 µM
same,TGI,OVCAR-3 ovarian,> 100 µM
same,TGI,LOX IMVI melanoma,> 100 µM
same,TGI,T-47D breast,> 100 µM
same,TGI,SN12C renal,> 100 µM
same,TGI,NCI-H460 lung,> 100 µM
same,TGI,CAKI-1 renal,> 100 µM
same,TGI,NCI-H226 lung,> 100 µM
same,TGI,A549 NSCLC,> 100 µM
same,TGI,KM12 colon,> 100 µM
same,TGI,NCI-H522 lung,> 100 µM
same,TGI,NCI-H23 lung,> 100 µM
same,TGI,HCT-15 colon,> 100 µM
same,TGI,M14 melanoma,> 100 µM
same,TGI,RXF 393 renal,> 100 µM
same,TGI,786-0 renal,> 100 µM
same,TGI,IGROV1 ovarian,> 100 µM
same,TGI,SK-OV-3 ovarian,> 100 µM
same,TGI,HT29 colon,> 100 µM
same,TGI,HOP-62 NSCLC,> 100 µM
same,TGI,MDA-MB-231 breast,> 100 µM
same,TGI,SR leukemia,> 100 µM
same,TGI,UACC-257 melanoma,> 100 µM
same,TGI,SW-620 colon,> 100 µM
same,TGI,CCRF-CEM leukemia,> 100 µM
same,TGI,OVCAR-8 ovarian,> 100 µM
same,TGI,HL-60(TB) leukemia,> 100 µM
same,TGI,SF-268 CNS,> 100 µM
same,TGI,MCF7 breast,> 100 µM
same,TGI,HOP-92 NSCLC,> 100 µM
same,TGI,UO-31 renal,> 100 µM
same,TGI,SK-MEL-28 melanoma,> 100 µM
same,TGI,K-562 leukemia,> 100 µM
same,TGI,COLO 205 colon,> 100 µM
same,TGI,NCI/ADR-RES ovarian,> 100 µM
same,TGI,SK-MEL-2 melanoma,> 100 µM
same,TGI,HCC-2998 colon,> 100 µM
same,TGI,SK-MEL-5 melanoma,> 100 µM
same,TGI,SNB-19 CNS,> 100 µM
same,TGI,PC-3 prostate,> 100 µM
same,TGI,MOLT-4 leukemia,> 100 µM
same,TGI,RPMI-8226 leukemia,> 100 µM
same,TGI,U251 CNS,> 100 µM
same,TGI,MALME-3M melanoma,> 100 µM
same,TGI,HS 578T breast,> 100 µM
COc1cccc(CC2C(=O)NC(=O)NC2=O)c1,GI50,SR leukemia,39.5 mg/L
O=C1CCS/C(=N/S(=O)(=O)c2ccc(N3N=C4c5ccccc5CC4C3c3cccs3)cc2)N1Cc1ccccc1 (centres undefined),GI50,SF-539 CNS,21.8 µM
same,TGI,SF-539 CNS,44.4 µM
same,GI50,UACC-62 melanoma,16.7 µM
same,TGI,UACC-62 melanoma,32.3 µM
same,GI50,EKVX NSCLC,25.7 µM
same,TGI,EKVX NSCLC,65.8 µM
same,GI50,TK-10 renal,17.7 µM
same,TGI,TK-10 renal,37.6 µM
same,GI50,HCT-116 colon,20.3 µM
same,TGI,HCT-116 colon,34.5 µM
same,GI50,MDA-MB-435,21.1 µM
same,TGI,MDA-MB-435,44.6 µM
same,GI50,SF-295 CNS,15.8 µM
same,TGI,SF-295 CNS,37.5 µM
same,GI50,OVCAR-5 ovarian,22.4 µM
same,TGI,OVCAR-5 ovarian,44.9 µM
same,GI50,ACHN renal,14.9 µM
same,TGI,ACHN renal,32.9 µM
same,GI50,SNB-75 CNS,30.2 µM
same,TGI,SNB-75 CNS,78.7 µM
same,GI50,OVCAR-4 ovarian,49.3 µM
same,TGI,OVCAR-4 ovarian,> 100 µM
same,GI50,OVCAR-3 ovarian,25.9 µM
same,TGI,OVCAR-3 ovarian,60.8 µM
same,GI50,LOX IMVI melanoma,13.6 µM
same,TGI,LOX IMVI melanoma,27.2 µM
same,GI50,T-47D breast,45.6 µM
same,TGI,T-47D breast,> 100 µM
same,GI50,SN12C renal,18.5 µM
same,TGI,SN12C renal,38.3 µM
same,GI50,NCI-H460 lung,> 100 µM
same,TGI,NCI-H460 lung,> 100 µM
same,GI50,DU-145 prostate,21 µM
same,TGI,DU-145 prostate,52.6 µM
same,GI50,CAKI-1 renal,24 µM
same,TGI,CAKI-1 renal,54.3 µM
same,GI50,NCI-H226 lung,26.5 µM
same,TGI,NCI-H226 lung,59.3 µM
same,GI50,A549 NSCLC,14.4 µM
same,TGI,A549 NSCLC,35.8 µM
same,GI50,KM12 colon,17.1 µM
same,TGI,KM12 colon,41 µM
same,GI50,NCI-H522 lung,15.9 µM
same,TGI,NCI-H522 lung,40 µM
same,GI50,NCI-H23 lung,16.7 µM
same,TGI,NCI-H23 lung,31.8 µM
same,GI50,HCT-15 colon,15.9 µM
same,TGI,HCT-15 colon,31.7 µM
same,GI50,M14 melanoma,15.3 µM
same,TGI,M14 melanoma,30.1 µM
same,GI50,RXF 393 renal,21.2 µM
same,TGI,RXF 393 renal,63.9 µM
same,GI50,786-0 renal,17.1 µM
same,TGI,786-0 renal,32.4 µM
same,GI50,IGROV1 ovarian,17.4 µM
same,TGI,IGROV1 ovarian,52.4 µM
same,GI50,SK-OV-3 ovarian,32.9 µM
same,TGI,SK-OV-3 ovarian,79.6 µM
same,GI50,HT29 colon,37 µM
same,TGI,HT29 colon,> 100 µM
same,GI50,HOP-62 NSCLC,18.6 µM
same,TGI,HOP-62 NSCLC,34 µM
same,GI50,MDA-MB-231 breast,21.5 µM
same,TGI,MDA-MB-231 breast,53.7 µM
same,GI50,BT-549 breast,26.2 µM
same,TGI,BT-549 breast,75.2 µM
same,GI50,UACC-257 melanoma,24.2 µM
same,TGI,UACC-257 melanoma,50.7 µM
same,GI50,SW-620 colon,24 µM
same,TGI,SW-620 colon,84.6 µM
same,GI50,CCRF-CEM leukemia,28 µM
same,TGI,CCRF-CEM leukemia,75.7 µM
same,GI50,OVCAR-8 ovarian,19.2 µM
same,TGI,OVCAR-8 ovarian,39.3 µM
same,GI50,SF-268 CNS,> 100 µM
same,TGI,SF-268 CNS,> 100 µM
same,GI50,MCF7 breast,> 100 µM
same,TGI,MCF7 breast,> 100 µM
same,GI50,HOP-92 NSCLC,35.9 µM
same,TGI,HOP-92 NSCLC,83.7 µM
same,GI50,UO-31 renal,28.3 µM
same,TGI,UO-31 renal,> 100 µM
same,GI50,SK-MEL-28 melanoma,42.1 µM
same,TGI,SK-MEL-28 melanoma,> 100 µM
same,GI50,K-562 leukemia,> 100 µM
same,TGI,K-562 leukemia,> 100 µM
same,GI50,COLO 205 colon,36.8 µM
same,TGI,COLO 205 colon,> 100 µM
same,GI50,NCI/ADR-RES ovarian,20.8 µM
same,TGI,NCI/ADR-RES ovarian,40.1 µM
same,GI50,SK-MEL-2 melanoma,28 µM
same,TGI,SK-MEL-2 melanoma,> 100 µM
same,GI50,HCC-2998 colon,17.9 µM
same,TGI,HCC-2998 colon,33.2 µM
same,GI50,SK-MEL-5 melanoma,14.1 µM
same,TGI,SK-MEL-5 melanoma,28.8 µM
same,GI50,SNB-19 CNS,22.3 µM
same,TGI,SNB-19 CNS,77.7 µM
same,GI50,PC-3 prostate,22.4 µM
same,TGI,PC-3 prostate,55.2 µM
same,GI50,MOLT-4 leukemia,47 µM
same,TGI,MOLT-4 leukemia,> 100 µM
same,GI50,RPMI-8226 leukemia,18.1 µM
same,TGI,RPMI-8226 leukemia,> 100 µM
same,GI50,U251 CNS,14.4 µM
same,TGI,U251 CNS,32.1 µM
same,GI50,HS 578T breast,23.5 µM
same,TGI,HS 578T breast,67.2 µM
